# Active and inactive are the calls of the source. For most assays here, no stated cut-off is given here; in the data, actives have a measured Kd and inactives only a lower limit.
# What was measured:
# [1] = biological target: Chromodomain-helicase-DNA-binding protein 4 (Homo sapiens, UniProt Q14839)
# Ephrin type-A receptor 1 = biological target: T1, Ephrin type-A receptor 1 (Homo sapiens, UniProt P21709)
# T1 sequence (P21709 whole entry): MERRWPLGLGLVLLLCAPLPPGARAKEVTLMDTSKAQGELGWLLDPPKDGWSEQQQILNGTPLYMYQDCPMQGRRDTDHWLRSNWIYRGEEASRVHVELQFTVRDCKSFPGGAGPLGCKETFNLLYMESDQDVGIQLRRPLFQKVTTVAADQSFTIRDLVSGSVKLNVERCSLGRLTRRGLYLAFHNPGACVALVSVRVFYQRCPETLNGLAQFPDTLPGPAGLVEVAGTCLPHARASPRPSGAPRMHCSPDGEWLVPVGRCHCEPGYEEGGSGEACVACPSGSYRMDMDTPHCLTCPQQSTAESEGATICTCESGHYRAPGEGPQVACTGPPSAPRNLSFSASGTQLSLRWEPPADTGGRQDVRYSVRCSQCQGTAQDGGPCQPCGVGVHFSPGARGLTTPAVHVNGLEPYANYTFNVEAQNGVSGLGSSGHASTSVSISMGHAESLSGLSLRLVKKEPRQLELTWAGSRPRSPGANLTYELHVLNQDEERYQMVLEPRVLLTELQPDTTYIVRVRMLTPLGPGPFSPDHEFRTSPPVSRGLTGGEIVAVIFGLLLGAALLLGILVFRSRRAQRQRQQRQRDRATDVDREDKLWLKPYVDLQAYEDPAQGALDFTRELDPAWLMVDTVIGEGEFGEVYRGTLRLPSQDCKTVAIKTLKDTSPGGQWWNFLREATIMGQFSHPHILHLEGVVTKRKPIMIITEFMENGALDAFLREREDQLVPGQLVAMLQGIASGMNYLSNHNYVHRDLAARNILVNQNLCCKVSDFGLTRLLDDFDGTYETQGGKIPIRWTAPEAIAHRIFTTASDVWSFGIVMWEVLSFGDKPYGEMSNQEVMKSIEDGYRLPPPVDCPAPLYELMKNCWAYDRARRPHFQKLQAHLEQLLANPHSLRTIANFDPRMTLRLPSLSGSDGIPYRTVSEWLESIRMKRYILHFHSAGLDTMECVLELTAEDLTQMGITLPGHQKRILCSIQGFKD
# [2] = biological target: Interleukin-1 receptor-associated kinase 1 (Homo sapiens, UniProt P51617)
# Interleukin-1 receptor-associated kinase 1, sequence (P51617 whole entry): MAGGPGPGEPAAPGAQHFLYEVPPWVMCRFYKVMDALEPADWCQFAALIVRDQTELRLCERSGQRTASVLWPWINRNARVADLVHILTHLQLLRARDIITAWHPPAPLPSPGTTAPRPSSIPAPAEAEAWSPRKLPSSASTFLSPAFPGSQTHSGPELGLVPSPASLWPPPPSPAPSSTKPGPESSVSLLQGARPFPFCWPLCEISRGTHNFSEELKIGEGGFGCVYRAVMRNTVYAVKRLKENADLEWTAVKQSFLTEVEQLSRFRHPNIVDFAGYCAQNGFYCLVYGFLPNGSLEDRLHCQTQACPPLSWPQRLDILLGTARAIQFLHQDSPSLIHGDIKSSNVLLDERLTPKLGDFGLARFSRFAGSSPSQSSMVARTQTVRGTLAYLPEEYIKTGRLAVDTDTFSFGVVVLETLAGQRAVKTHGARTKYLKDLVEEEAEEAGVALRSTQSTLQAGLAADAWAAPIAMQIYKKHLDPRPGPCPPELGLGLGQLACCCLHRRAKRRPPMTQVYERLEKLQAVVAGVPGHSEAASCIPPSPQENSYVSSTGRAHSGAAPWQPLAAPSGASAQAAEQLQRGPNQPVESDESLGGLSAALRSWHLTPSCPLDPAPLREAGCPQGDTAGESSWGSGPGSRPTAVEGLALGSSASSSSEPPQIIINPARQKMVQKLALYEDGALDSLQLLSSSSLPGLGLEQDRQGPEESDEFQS
# [3] = biological target: Mitogen-activated protein kinase kinase kinase kinase 5 (Homo sapiens, UniProt Q9Y4K4)
# Mitogen-activated protein kinase kinase kinase kinase 5, sequence (Q9Y4K4 whole entry): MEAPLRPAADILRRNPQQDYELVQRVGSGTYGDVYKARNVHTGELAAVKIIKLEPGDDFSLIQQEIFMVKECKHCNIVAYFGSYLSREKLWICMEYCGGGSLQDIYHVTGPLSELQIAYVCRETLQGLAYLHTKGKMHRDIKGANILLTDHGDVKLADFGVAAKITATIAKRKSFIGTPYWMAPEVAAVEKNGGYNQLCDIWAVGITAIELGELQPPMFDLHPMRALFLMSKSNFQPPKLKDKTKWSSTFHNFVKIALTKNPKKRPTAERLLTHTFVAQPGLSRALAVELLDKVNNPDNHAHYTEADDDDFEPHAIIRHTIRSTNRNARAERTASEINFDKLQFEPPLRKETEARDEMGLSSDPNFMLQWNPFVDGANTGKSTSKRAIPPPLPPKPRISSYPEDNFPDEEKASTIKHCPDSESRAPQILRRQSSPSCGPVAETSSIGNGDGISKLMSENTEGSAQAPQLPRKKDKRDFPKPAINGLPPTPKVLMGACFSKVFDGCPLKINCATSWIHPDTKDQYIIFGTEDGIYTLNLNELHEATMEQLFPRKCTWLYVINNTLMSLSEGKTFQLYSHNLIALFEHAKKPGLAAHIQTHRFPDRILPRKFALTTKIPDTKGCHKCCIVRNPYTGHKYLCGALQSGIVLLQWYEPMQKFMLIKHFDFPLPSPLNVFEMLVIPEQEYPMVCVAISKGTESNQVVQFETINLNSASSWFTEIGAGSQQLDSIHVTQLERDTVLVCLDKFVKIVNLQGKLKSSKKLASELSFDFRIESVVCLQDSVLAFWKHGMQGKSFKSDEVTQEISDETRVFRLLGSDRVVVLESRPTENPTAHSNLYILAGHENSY
# Midasin = Midasin (Homo sapiens, UniProt Q9NU22)
# [4] = biological target: Protein kinase C delta type (Homo sapiens, UniProt Q05655)
# Protein kinase C delta type, sequence (Q05655 whole entry): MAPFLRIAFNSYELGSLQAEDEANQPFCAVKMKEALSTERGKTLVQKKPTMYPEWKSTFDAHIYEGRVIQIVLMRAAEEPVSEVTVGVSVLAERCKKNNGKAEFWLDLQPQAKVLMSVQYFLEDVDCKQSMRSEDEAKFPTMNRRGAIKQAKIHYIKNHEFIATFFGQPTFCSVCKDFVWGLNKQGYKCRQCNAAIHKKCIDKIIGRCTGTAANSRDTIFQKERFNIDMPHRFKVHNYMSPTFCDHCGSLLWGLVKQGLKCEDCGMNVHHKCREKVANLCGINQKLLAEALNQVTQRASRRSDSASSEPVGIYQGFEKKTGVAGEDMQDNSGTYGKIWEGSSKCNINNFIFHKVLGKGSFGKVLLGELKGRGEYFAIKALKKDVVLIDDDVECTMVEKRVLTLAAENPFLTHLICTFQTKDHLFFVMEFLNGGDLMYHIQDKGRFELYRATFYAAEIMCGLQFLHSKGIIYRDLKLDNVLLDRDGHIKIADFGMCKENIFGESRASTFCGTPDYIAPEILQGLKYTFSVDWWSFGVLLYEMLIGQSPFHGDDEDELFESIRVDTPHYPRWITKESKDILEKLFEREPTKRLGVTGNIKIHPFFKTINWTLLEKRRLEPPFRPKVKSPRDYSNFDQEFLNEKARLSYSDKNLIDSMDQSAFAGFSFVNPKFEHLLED
# [5] = biological target: Protein-tyrosine kinase 2-beta (Homo sapiens, UniProt Q14289)
# [6] = biological target: Ribosomal protein S6 kinase beta-1 (Homo sapiens, UniProt P23443)
# Ribosomal protein S6 kinase beta-1, sequence (P23443 whole entry): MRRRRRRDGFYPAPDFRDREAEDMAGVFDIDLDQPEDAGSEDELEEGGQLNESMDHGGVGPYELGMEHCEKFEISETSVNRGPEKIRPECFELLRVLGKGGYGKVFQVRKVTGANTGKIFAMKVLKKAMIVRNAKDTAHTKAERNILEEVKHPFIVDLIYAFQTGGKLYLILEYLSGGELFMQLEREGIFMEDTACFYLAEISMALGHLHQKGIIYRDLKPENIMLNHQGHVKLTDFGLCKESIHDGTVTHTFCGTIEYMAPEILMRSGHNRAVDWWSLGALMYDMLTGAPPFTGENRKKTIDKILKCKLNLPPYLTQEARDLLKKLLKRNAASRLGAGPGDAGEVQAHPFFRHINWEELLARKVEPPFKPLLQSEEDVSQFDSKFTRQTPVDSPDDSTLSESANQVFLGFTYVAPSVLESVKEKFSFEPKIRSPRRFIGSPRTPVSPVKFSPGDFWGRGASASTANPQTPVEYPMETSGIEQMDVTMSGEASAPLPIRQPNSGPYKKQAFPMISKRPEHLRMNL
# Chromodomain-helicase-DNA-binding protein 4, sequence (Q14839 whole entry): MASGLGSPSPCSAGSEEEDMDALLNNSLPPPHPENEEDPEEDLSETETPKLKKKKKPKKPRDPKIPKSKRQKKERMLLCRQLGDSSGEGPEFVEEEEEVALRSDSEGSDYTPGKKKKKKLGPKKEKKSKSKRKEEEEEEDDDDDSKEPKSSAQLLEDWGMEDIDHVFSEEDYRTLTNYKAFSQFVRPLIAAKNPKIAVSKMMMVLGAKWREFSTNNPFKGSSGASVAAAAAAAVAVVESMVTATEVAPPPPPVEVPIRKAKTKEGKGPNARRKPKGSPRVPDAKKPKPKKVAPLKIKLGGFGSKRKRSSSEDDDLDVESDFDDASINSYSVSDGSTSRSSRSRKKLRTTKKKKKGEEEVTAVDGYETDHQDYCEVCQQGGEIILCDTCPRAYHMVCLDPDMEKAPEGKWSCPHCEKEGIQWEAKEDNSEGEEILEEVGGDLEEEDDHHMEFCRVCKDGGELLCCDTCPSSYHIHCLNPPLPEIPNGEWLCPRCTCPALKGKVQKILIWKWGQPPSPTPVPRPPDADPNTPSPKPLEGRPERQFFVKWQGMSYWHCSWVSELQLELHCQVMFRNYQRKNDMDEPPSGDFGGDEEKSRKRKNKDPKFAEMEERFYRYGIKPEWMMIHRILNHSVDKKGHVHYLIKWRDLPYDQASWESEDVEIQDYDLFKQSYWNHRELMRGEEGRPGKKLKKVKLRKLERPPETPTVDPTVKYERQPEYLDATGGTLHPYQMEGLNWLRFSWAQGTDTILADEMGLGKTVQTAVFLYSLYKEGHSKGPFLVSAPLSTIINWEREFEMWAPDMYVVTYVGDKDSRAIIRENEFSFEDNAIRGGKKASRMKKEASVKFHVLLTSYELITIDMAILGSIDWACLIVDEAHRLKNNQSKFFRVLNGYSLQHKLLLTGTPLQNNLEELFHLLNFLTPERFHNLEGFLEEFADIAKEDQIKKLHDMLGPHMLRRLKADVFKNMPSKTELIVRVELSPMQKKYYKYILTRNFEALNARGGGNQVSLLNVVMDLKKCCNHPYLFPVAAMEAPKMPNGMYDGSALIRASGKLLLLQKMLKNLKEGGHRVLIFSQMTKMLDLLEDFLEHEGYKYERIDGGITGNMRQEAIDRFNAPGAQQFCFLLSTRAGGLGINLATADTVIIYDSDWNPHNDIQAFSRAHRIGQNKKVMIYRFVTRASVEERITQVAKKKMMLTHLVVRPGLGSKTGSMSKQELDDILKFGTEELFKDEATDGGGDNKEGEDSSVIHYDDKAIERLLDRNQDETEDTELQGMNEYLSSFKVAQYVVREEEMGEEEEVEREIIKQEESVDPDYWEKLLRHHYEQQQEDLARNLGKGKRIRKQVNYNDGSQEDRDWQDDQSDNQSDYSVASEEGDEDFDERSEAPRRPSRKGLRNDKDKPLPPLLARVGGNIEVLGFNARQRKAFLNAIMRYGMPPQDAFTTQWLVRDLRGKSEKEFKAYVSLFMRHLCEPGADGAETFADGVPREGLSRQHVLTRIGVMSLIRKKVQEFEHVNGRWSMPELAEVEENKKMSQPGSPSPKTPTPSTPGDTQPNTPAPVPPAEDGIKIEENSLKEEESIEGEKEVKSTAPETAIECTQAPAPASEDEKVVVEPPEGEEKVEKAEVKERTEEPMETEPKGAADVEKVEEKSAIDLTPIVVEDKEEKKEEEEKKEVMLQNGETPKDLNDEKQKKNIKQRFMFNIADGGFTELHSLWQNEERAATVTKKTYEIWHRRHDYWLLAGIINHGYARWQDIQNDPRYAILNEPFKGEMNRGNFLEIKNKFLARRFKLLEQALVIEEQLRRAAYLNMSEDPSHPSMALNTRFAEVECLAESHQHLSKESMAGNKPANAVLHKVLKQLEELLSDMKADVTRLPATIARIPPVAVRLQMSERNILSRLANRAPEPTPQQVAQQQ
SMILES,Kd [1],Kd (Ephrin type-A receptor 1),Kd [2],Kd [3],Kd (Midasin),Kd [4],Kd [5],Kd [6]
C[C@@H](Oc1cc(C(=O)Nc2ccc(C(=O)N3CCN(C)CC3)cc2)nnc1N)c1c(Cl)ccc(F)c1Cl,> 30 µM (inactive),> 30 µM (inactive),> 30 µM (inactive),20.9 µM (active),> 30 µM (inactive),> 30 µM (inactive),> 30 µM (inactive),> 30 µM (inactive)
CC(=O)c1cnc2ccc(-c3cc(Cl)c(O)c(Cl)c3)nc2c1N[C@H]1CC[C@H](CN(C)C)CC1,> 30 µM (inactive),0.091 µM (active),–,0.071 µM (active),> 30 µM (inactive),–,0.03 µM (active),> 30 µM (inactive)
Nc1ncnc2c1c(-c1cccc(OCc3ccccc3)c1)cn2[C@H]1C[C@@H](CN2CCC2)C1 [AEW-541],–,> 30 µM (inactive),> 30 µM (inactive),2.49 µM (active),> 30 µM (inactive),> 30 µM (inactive),> 30 µM (inactive),> 30 µM (inactive)
C=CC(=O)Nc1cc2c(Nc3ccc(F)c(Cl)c3)ncnc2cc1C#CC(C)(C)N1CCN(C)CC1 [AV-412 FREE BASE],> 30 µM (inactive),> 30 µM (inactive),> 30 µM (inactive),> 30 µM (inactive),> 30 µM (inactive),> 30 µM (inactive),> 30 µM (inactive),> 30 µM (inactive)
COc1cc([C@@H]2c3cc4c(cc3[C@H](O)[C@H]3COC(=O)[C@@H]23)OCO4)cc(OC)c1OC [AXL-1717],> 30 µM (inactive),> 30 µM (inactive),> 30 µM (inactive),> 30 µM (inactive),> 30 µM (inactive),> 30 µM (inactive),> 30 µM (inactive),> 30 µM (inactive)
COc1c(OCCCN2CCOCC2)ccc2c1N=C(NC(=O)c1cnc(N)nc1)N1CCN=C21 [COPANLISIB],> 30 µM (inactive),–,> 30 µM (inactive),> 30 µM (inactive),> 30 µM (inactive),> 30 µM (inactive),> 30 µM (inactive),> 30 µM (inactive)
Cn1cc(C2=C(c3cn(C4CCN(Cc5ccccn5)CC4)c4ccccc34)C(=O)NC2=O)c2ccccc21 [ENZASTAURIN],–,–,–,–,> 30 µM (inactive),–,–,–
Cc1nc2cc(-n3ncc(C(=O)c4cc5ccccc5[nH]4)c3N)ccc2[nH]1 [FGFR INHIBITOR DEBIO 1347],> 30 µM (inactive),> 30 µM (inactive),> 30 µM (inactive),> 30 µM (inactive),> 30 µM (inactive),> 30 µM (inactive),> 30 µM (inactive),–
O=C(Nc1nc2cccc(-c3ccc(CN4CCS(=O)(=O)CC4)cc3)n2n1)C1CC1 [FILGOTINIB],> 30 µM (inactive),> 30 µM (inactive),4.71 µM (active),> 30 µM (inactive),> 30 µM (inactive),> 30 µM (inactive),> 30 µM (inactive),> 30 µM (inactive)
Cc1cccc(-c2nn3c(c2-c2ccnc4ccc(C(N)=O)cc24)CCC3)n1 [GALUNISERTIB],> 30 µM (inactive),–,> 30 µM (inactive),> 30 µM (inactive),> 30 µM (inactive),> 30 µM (inactive),> 30 µM (inactive),> 30 µM (inactive)
CCn1cc(-c2ccnc3[nH]c(-c4cccc(CN(C)C)c4)cc23)c(-c2ccc(NC(=O)N(C)C)cc2)n1 [GSK-1070916],–,> 30 µM (inactive),> 30 µM (inactive),> 30 µM (inactive),> 30 µM (inactive),> 30 µM (inactive),> 30 µM (inactive),–
CNC(=O)c1cccc2cc(Oc3ccnc4cc(OCC5(N)CC5)c(OC)cc34)ccc12 [LUCITANIB],> 30 µM (inactive),> 30 µM (inactive),> 30 µM (inactive),> 30 µM (inactive),> 30 µM (inactive),> 30 µM (inactive),> 30 µM (inactive),> 30 µM (inactive)
CNC(=O)c1nn(C)c2c1C(C)(C)Cc1cnc(Nc3ccc(N4CCN(C)CC4)cc3)nc1-2 [MILCICLIB],–,> 30 µM (inactive),2.06 µM (active),10 µM (active),> 30 µM (inactive),> 30 µM (inactive),> 30 µM (inactive),> 30 µM (inactive)
CN(C[C@@H]1COCCO1)S(=O)(=O)Nc1ccc2ccc3ncc(-c4cnn(C)c4)cc3c(=O)c2c1 [MK-2461],> 30 µM (inactive),> 30 µM (inactive),> 30 µM (inactive),> 30 µM (inactive),> 30 µM (inactive),> 30 µM (inactive),> 30 µM (inactive),> 30 µM (inactive)
COc1ncc(-c2ccc3nccc(-c4ccnnc4)c3c2)cc1NS(=O)(=O)c1ccc(F)cc1F [OMIPALISIB],> 30 µM (inactive),–,> 30 µM (inactive),> 30 µM (inactive),> 30 µM (inactive),> 30 µM (inactive),> 30 µM (inactive),> 30 µM (inactive)
O=C(NOCCO)c1cc(CN2OCCCC2=O)c(F)c(F)c1Nc1ccc(I)cc1F [RO-4987655],> 30 µM (inactive),–,–,–,> 30 µM (inactive),–,–,–
CCS(=O)(=O)c1cccc(-c2cc(C(=O)NC3CCN(C)CC3)c(C)c3[nH]c4ncc(C)cc4c23)c1 [TAK-901],> 30 µM (inactive),> 30 µM (inactive),> 30 µM (inactive),5.36 µM (active),> 30 µM (inactive),> 30 µM (inactive),0.19 µM (active),> 30 µM (inactive)
Cn1ncc(Cl)c1-c1cc(C(=O)N[C@H](CN)Cc2ccc(F)c(F)c2)oc1Cl [UPROSERTIB],> 30 µM (inactive),> 30 µM (inactive),> 30 µM (inactive),> 30 µM (inactive),> 30 µM (inactive),> 30 µM (inactive),> 30 µM (inactive),> 30 µM (inactive)
C[C@@H](N)c1ccc(C(=O)Nc2ccnc3[nH]ccc23)cc1 [Y-39983],> 30 µM (inactive),> 30 µM (inactive),> 30 µM (inactive),> 30 µM (inactive),> 30 µM (inactive),0.034 µM (active),> 30 µM (inactive),–

# — ChEMBL document CHEMBL3991601, “The target landscape of clinical kinase drugs” (Science, 2017)
